From US10273235B2, “Compositions and methods for inhibiting β-lactamase” (LegoChem Biosciences, Inc., priority 2015, dated 2019)
Values joined by “and” are separate entries in the source; they are usually repeats but may differ in a detail not shown here. Equal values may be shown once.

Columns and labels:
E. coli K0519020 = test: MIC of strain used for extraction of enzymes, E. coli K0519020 (CTX-M-15, TEM-1, OXA-1, AmpC (NC_000913)); type: cell-based; conditions: BLI: 4 ug/mL
E. aerogenes K9911729 = test: MIC of strain used for extraction of enzymes, E. aerogenes K9911729 (CMY-10, TEM-1, SHV-12, AmpC (DQ478697)); type: cell-based; conditions: BLI: 4 ug/mL
K. pneumoniae ATCC700603 = test: BLI potentiation MIC, K. pneumoniae ATCC700603 (SHV-3); type: cell-based; conditions: BLI fixed 4 ug/ml; incubation 19 h
Procedure: (§1) MIC90 (μg/mL) is the lowest concentration of an antibiotic that will inhibit the visible growth of 90% of microorganisms after incubation as compared with a control group to which the antibiotic is not treated.
(§2) MIC values were measured by the broth microdilution method developed by the Clinical and Laboratory Standards Institute (CLSI) (see CLSI M07-A9, Methods for Dilution Antimicrobial Susceptibility Test for Bacteria that Grow Aerobically; Approved Standard-Ninth Edition (2012): CLSI, Villanova, Pa.). The in vitro antibacterial activity was measured with respect to the following 9 clinical isolates: P. aeruginosa (3 strains); K. pneumoniae (6 strains). The in vitro antibacterial activity of selected compounds was measured with respect to the following 15 clinical isolates: K. pneumoniae (15 strains).

K. pneumoniae 6839 = test: BLI potentiation MIC, K. pneumoniae 6839 (SHV-11, SHV-12, DHA-1); type: cell-based; conditions: BLI fixed 4 ug/ml; incubation 19 h
Procedure: as §1, §2

[1] = biological target: KPC-3 β-lactamase (class A) (Klebsiella pneumoniae, UniProt Q9F663, H272Y); test: Inhibitory activity against β-lactamases (nitrocefin), KPC-3; type: biochemical, K. pneumoniae; conditions: 100 μM nitrocefin, 30° C., pH 6.8; read-out: IC50 values, KPC-3
KPC-3 β-lactamase (class A), sequence (Q9F663 25-293 H272Y): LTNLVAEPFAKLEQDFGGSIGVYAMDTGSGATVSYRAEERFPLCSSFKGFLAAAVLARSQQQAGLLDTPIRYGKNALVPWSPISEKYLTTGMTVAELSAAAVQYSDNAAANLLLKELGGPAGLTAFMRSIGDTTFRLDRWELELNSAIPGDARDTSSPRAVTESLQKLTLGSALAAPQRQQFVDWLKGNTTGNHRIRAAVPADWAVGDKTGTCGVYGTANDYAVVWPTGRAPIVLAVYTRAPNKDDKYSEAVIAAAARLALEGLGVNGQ
Procedure: (§3) More diluted stocks were prepared as necessary. Enzyme activity was determined by monitoring the change of absorbance at 492 nm using the characteristic molecular extinction coefficient (Δε492=17,400 M^−1 cm^−1) of nitrocefin by a Shimazu UV-1650PC spectrophotometer. The nitrocefin was purchased from OXOID. Kinetic measurements were run at 30° C. in 10 mM MES[2-(N-morpholino)ethanesulfonic acid]buffer (pH 6.8) or 10 mM MES[2-(N-morpholino)ethanesulfonic acid] buffer (pH 6.8), […] BSA and 50 mM sodium bicarbonate. Reactions were performed in 2.5 mL cuvettes with 100 μM nitrocefin and initiated by adding 1.5 nM to 2.5 nM enzyme. The first 180 s of each reaction was used to measure initial rates. Data were evaluated using Microsoft Excel. Concentration dependent inhibition of enzyme was measured using different concentrations of inhibitors resulting from two-fold dilution series. Reaction progress at every concentration of inhibitor was measured in triplicates. IC50 values were calculated using 4-parameter log fits using XL Fit curve fitting software (www.idbs.com) for Excel using the following equation:
(§4) [formula] where y is the remaining enzyme activity (in %) and x is the corresponding concentration. he fitted IC50 parameter is the relative IC50, and is defined as the concentration giving a response half way between the fitted top (B) and bottom (A) of the curve.

K. pneumoniae 5971(KOX) = test: BLI potentiation MIC, K. pneumoniae 5971(KOX); type: cell-based; conditions: BLI fixed 4 ug/ml; incubation 19 h
Procedure: as §1, §2

K. pneumoniae MP14 = test: BLI potentiation MIC, K. pneumoniae MP14; type: cell-based; conditions: BLI fixed 4 ug/ml; incubation 19 h
Procedure: as §1, §2

P. aeruginosa ARC3514 = test: BLI potentiation MIC, P. aeruginosa ARC3514 (KPC-2, OprD−, AmpC); type: cell-based; conditions: BLI fixed 4 ug/ml; incubation 19 h
Summary of the method: (§5)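 MICs were determined by CLSI broth microdilution against clinical isolates of K. pneumoniae and P. aeruginosa. Values are reported as MIC90 (μg/mL), the lowest antibiotic concentration inhibiting visible growth of 90% of organisms relative to an untreated control.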

K. pneumoniae 5216 = test: BLI potentiation MIC, K. pneumoniae 5216 (TEM-1A); type: cell-based; conditions: BLI fixed 4 ug/ml; incubation 19 h
Procedure: as §1, §2

K. pneumoniae 7586 = test: BLI potentiation MIC, K. pneumoniae 7586; type: cell-based; conditions: BLI fixed 4 ug/ml; incubation 19 h
Procedure: as §1, §2

P. aeruginosa ARC3506 = test: BLI potentiation MIC, P. aeruginosa ARC3506 (VEB-1, OXA-10, OprD−, AmpC); type: cell-based; conditions: BLI fixed 4 ug/ml; incubation 19 h
Summary of the method: as §5

K. pneumoniae NDM-506 = test: BLI potentiation MIC, K. pneumoniae NDM-506; type: cell-based; conditions: BLI fixed 4 ug/ml; incubation 19 h
Summary of the method: as §5

K. pneumoniae 5576 = test: BLI potentiation MIC, K. pneumoniae 5576 (SHV-11, CMY-2, DHA-1, TEM-1); type: cell-based; conditions: BLI fixed 4 ug/ml; incubation 19 h
Summary of the method: as §5

K. pneumoniae 100 = test: BLI potentiation MIC, K. pneumoniae 100; type: cell-based; conditions: BLI fixed 4 ug/ml; incubation 19 h
Procedure: as §1, §2

K. pneumoniae CL5761 = test: MIC of strain used for extraction of enzymes, K. pneumoniae CL5761 (KPC-3, TEM-216, SHV-5); type: cell-based; conditions: BLI: 4 ug/mL
Procedure: as §1, §2

K. pneumoniae 5117 = test: BLI potentiation MIC, K. pneumoniae 5117 (SHV-11, TEM-1); type: cell-based; conditions: BLI fixed 4 ug/ml; incubation 19 h
Procedure: as §1, §2

K. pneumoniae 101 = test: BLI potentiation MIC, K. pneumoniae 101; type: cell-based; conditions: BLI fixed 4 ug/ml; incubation 19 h
Procedure: as §1, §2

K. pneumoniae 89 = test: BLI potentiation MIC, K. pneumoniae 89; type: cell-based; conditions: BLI fixed 4 ug/ml; incubation 19 h
Procedure: as §1, §2

K. pneumoniae 6540 = test: BLI potentiation MIC, K. pneumoniae 6540; type: cell-based; conditions: BLI fixed 4 ug/ml; incubation 19 h
Procedure: as §1, §2

P. aeruginosa ATCC27853 = test: BLI potentiation MIC (broth microdilution), P. aeruginosa ATCC27853 (PoxB, AmpC); type: cell-based; conditions: BLI fixed 4 ug/ml; incubation 19 h
Summary of the method: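 Potentiation is expressed as MIC90 (μg/mL) by CLSI broth microdilution on clinical isolates; inhibition of visible growth is judged against an antibiotic-free control.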

K. pneumoniae 3784 = test: BLI potentiation MIC, K. pneumoniae 3784 (SHV-11, SHV-12, DHA-1); type: cell-based; conditions: BLI fixed 4 ug/ml; incubation 19 h
Summary of the method: as §5

K. pneumoniae 4006 = test: BLI potentiation MIC, K. pneumoniae 4006 (SHV-12, CTX-M-15, TEM-1, OXA-9); type: cell-based; conditions: BLI fixed 4 ug/ml; incubation 19 h
Procedure: as §1, §2

K. pneumoniae 4248 = test: BLI potentiation MIC, K. pneumoniae 4248 (SHV-11, CTX-M-15, TEM-1, OXA-1); type: cell-based; conditions: BLI fixed 4 ug/ml; incubation 19 h
Summary of the method: as §5

K. pneumoniae 23 = test: BLI potentiation MIC, K. pneumoniae 23; type: cell-based; conditions: BLI fixed 4 ug/ml; incubation 19 h
Procedure: as §1, §2

[2] = biological target: T1, CMY-10 β-lactamase (class C) (Klebsiella aerogenes, UniProt Q99QC1); test: Inhibitory activity against β-lactamases (nitrocefin), CMY-10; type: biochemical; conditions: 100 μM nitrocefin, 30° C., pH 6.8; read-out: IC50 values, CMY-10
T1 construct: MICs of bacterial strains used for extraction of enzymes; endogenous in cells
T1 sequence (Q99QC1 24-382): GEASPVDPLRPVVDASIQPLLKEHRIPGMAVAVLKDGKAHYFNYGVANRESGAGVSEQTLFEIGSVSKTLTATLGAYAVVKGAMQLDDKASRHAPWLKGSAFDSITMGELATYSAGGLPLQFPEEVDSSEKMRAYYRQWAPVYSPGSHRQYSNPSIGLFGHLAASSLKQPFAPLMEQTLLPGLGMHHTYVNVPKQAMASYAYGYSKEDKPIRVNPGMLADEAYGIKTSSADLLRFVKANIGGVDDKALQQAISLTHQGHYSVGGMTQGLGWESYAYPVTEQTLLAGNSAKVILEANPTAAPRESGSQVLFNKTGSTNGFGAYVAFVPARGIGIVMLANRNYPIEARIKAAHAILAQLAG
Procedure: as §3, §4

[3] = biological target: T2, OXA-48 β-lactamase (class D) (Klebsiella pneumoniae, UniProt Q6XEC0); test: Inhibitory activity against β-lactamases (nitrocefin), OXA-48; type: biochemical; conditions: 100 μM nitrocefin, 30° C., pH 6.8
T2 construct: MICs of bacterial strains used for extraction of enzymes; endogenous in cells; host or cells: bacterial strain carrying OXA-48 (E. coli according to the earlier reading)
T2 sequence (Q6XEC0 23-265, looked up): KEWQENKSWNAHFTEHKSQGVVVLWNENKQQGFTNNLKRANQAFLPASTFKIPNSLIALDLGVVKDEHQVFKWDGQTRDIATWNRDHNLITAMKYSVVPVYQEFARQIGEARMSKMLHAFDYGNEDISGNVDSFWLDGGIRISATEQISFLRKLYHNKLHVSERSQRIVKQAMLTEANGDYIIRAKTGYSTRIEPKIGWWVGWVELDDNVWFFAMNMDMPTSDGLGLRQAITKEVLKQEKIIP
Procedure: as §3, §4

SMILES: NCCONC(=O)[C@@H]1CC[C@@H]2CN1C(=O)N2OS(=O)(=O)O [OP-595]
- MIC of LCB10-0200 with BLI (E. coli K0519020): 0.0625 μg/mL
- MIC of Meropenem with BLI (E. coli K0519020): 0.125 µg/mL
- MIC of LCB10-0200 with BLI (E. aerogenes K9911729): <0.0312 μg/mL
- MIC of Meropenem with BLI (E. aerogenes K9911729): <0.0312 µg/mL
- MIC of Ceftazidime with BLI (K. pneumoniae ATCC700603): 0.125 µg/mL
- MIC of LCB10-0200 with BLI (K. pneumoniae ATCC700603): 0.125 μg/mL
- MIC of Meropenem with BLI (K. pneumoniae ATCC700603): 0.125 µg/mL and 0.0625 µg/mL
- MIC of LCB10-0200 with BLI (K. pneumoniae 6839): 0.0625 μg/mL
- IC50 [1]: 0.0637 µM
- MIC of LCB10-0200 with BLI (K. pneumoniae 5971(KOX)): 8 μg/mL and 16 μg/mL
- MIC of LCB10-0200 with BLI (K. pneumoniae MP14): 0.03125 μg/mL and <0.0312 μg/mL
- MIC of Ceftazidime with BLI (P. aeruginosa ARC3514): 8 µg/mL
- MIC of LCB10-0200 with BLI (P. aeruginosa ARC3514): 0.125 μg/mL and 0.25 μg/mL
- MIC of Meropenem with BLI (P. aeruginosa ARC3514): >64 µg/mL
- MIC of LCB10-0200 with BLI (K. pneumoniae 5216): 0.25 μg/mL and 0.5 μg/mL
- MIC of Meropenem with BLI (K. pneumoniae 5216): 2 µg/mL
- MIC of LCB10-0200 with BLI (K. pneumoniae 7586): 0.03125 μg/mL and 0.0625 μg/mL
- MIC of Ceftazidime with BLI (P. aeruginosa ARC3506): 32 µg/mL
- MIC of LCB10-0200 with BLI (P. aeruginosa ARC3506): 0.25 μg/mL
- MIC of Meropenem with BLI (P. aeruginosa ARC3506): 64 µg/mL
- MIC of Ceftazidime with BLI (K. pneumoniae NDM-506): 0.125 µg/mL
- MIC of Meropenem with BLI (K. pneumoniae NDM-506): >64 µg/mL
- MIC of Ceftazidime with BLI (K. pneumoniae 5576): 0.125 µg/mL
- MIC of LCB10-0200 with BLI (K. pneumoniae 5576): 0.0625 μg/mL
- MIC of Meropenem with BLI (K. pneumoniae 5576): 0.03125 µg/mL and 0.0625 µg/mL
- MIC of LCB10-0200 with BLI (K. pneumoniae 100): 0.0625 μg/mL
- MIC of LCB10-0200 with BLI (K. pneumoniae CL5761): 0.25 μg/mL
- MIC of Meropenem with BLI (K. pneumoniae CL5761): 1 µg/mL
- MIC of LCB10-0200 with BLI (K. pneumoniae 5117): 0.0625 μg/mL
- MIC of Meropenem with BLI (K. pneumoniae 5117): 0.5 µg/mL and 0.25 µg/mL
- MIC of LCB10-0200 with BLI (K. pneumoniae 101): 0.25 μg/mL
- MIC of Meropenem with BLI (K. pneumoniae 101): 0.125 µg/mL and 0.0625 µg/mL
- MIC of LCB10-0200 with BLI (K. pneumoniae 89): 0.0625 μg/mL
- MIC of LCB10-0200 with BLI (K. pneumoniae 6540): 0.0625 μg/mL
- MIC of Meropenem with BLI (K. pneumoniae 6540): 0.125 µg/mL and 0.0625 µg/mL
- MIC of Ceftazidime with BLI (P. aeruginosa ATCC27853): 2 µg/mL
- MIC of LCB10-0200 with BLI (P. aeruginosa ATCC27853): 0.25 μg/mL and 0.5 μg/mL
- MIC of Meropenem with BLI (P. aeruginosa ATCC27853): 2 µg/mL
- MIC of Ceftazidime with BLI (K. pneumoniae 3784): 0.5 µg/mL
- MIC of LCB10-0200 with BLI (K. pneumoniae 3784): 0.0625 μg/mL
- MIC of Meropenem with BLI (K. pneumoniae 3784): 0.25 µg/mL
- MIC of Ceftazidime with BLI (K. pneumoniae 4006): 0.125 µg/mL
- MIC of LCB10-0200 with BLI (K. pneumoniae 4006): 0.03125 μg/mL and 0.0625 μg/mL
- MIC of Meropenem with BLI (K. pneumoniae 4006): 0.0625 µg/mL
- MIC of Ceftazidime with BLI (K. pneumoniae 4248): 0.0625 µg/mL
- MIC of LCB10-0200 with BLI (K. pneumoniae 4248): <0.03125 μg/mL
- MIC of Meropenem with BLI (K. pneumoniae 4248): 0.0625 µg/mL
- MIC of LCB10-0200 with BLI (K. pneumoniae 23): 1 μg/mL
- IC50 [2]: 42.6 µM
- IC50 [3]: 44.2 µM
